From PubChem BioAssay AID248 (DTP/NCI, 2004)
“And” between values parts separate entries of the source, which are not always exact repeats. Equal values may be shown once. Inconclusive results and toxic doses are left out. Cut-off read from the data, not from the text of the source: active = T/C of 150% or more; inactive = T/C below 125%.

System: L1210 leukemia ip in BDF1 mice, survival T/C
Test: NCI In Vivo Anticancer Drug Screen. Data for tumor model L1210 Leukemia (intraperitoneal) in B6D2F1 (BDF1) mice
Conditions: endpoint: mean survival time, higher = longer survival
Outline: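 Transplanted-tumor mice were given test agent; controls received vehicle only. Survival readings from the two groups were divided (treated over control).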

[1] = dose: 50.0 mg/kg/injection, schedule: Q04DX003 (ip), vehicle: Klucel (hydroxypropylcellulose) (HPC)
[2] = dose: 100.0 mg/kg/injection, schedule: Q01DX009 (ip), vehicle: Klucel (hydroxypropylcellulose) (HPC)
[3] = dose: 100.0 mg/kg/injection, schedule: Q04DX003 (ip), vehicle: Klucel (hydroxypropylcellulose) (HPC)
[4] = dose: 200.0 mg/kg/injection, schedule: Q01DX009 (ip), vehicle: Klucel (hydroxypropylcellulose) (HPC)
[5] = dose: 200.0 mg/kg/injection, schedule: Q04DX003 (ip), vehicle: Klucel (hydroxypropylcellulose) (HPC)
[6] = dose: 100.0 mg/kg/injection, schedule: Q01DX001 (ip), vehicle: saline
[7] = dose: 100.0 mg/kg/injection, schedule: Q01DX001 (ip), vehicle: carboxymethylcellulose (CMC)
[8] = dose: 200.0 mg/kg/injection, schedule: Q01DX001 (ip), vehicle: carboxymethylcellulose (CMC)
[9] = dose: 400.0 mg/kg/injection, schedule: Q01DX001 (ip), vehicle: carboxymethylcellulose (CMC)
[10] = dose: 50.0 mg/kg/injection, schedule: Q01DX009 (ip), vehicle: saline
[11] = dose: 100.0 mg/kg/injection, schedule: Q01DX009 (ip), vehicle: saline
[12] = dose: 100.0 mg/kg/injection, schedule: Q04DX003 (ip), vehicle: saline
[13] = dose: 200.0 mg/kg/injection, schedule: Q01DX009 (ip), vehicle: saline
[14] = dose: 200.0 mg/kg/injection, schedule: Q04DX003 (ip), vehicle: saline
[15] = dose: 400.0 mg/kg/injection, schedule: Q04DX003 (ip), vehicle: saline
[16] = dose: 100.0 mg/kg/injection, schedule: Q04DX003 (ip), vehicle: saline with Tween-80
[17] = dose: 200.0 mg/kg/injection, schedule: Q04DX003 (ip), vehicle: saline with Tween-80
[18] = dose: 400.0 mg/kg/injection, schedule: Q04DX003 (ip), vehicle: saline with Tween-80
[19] = dose: 100.0 mg/kg/injection, schedule: Q01DX009 (ip), vehicle: saline with Tween-80
[20] = dose: 200.0 mg/kg/injection, schedule: Q01DX009 (ip), vehicle: saline with Tween-80

Measured: T/C

Cc1[nH]c(=S)[nH]c(=O)c1CN(CCO)CCO
inactive: dose: 50.0 mg/kg/injection, schedule: Q01DX001 (ip), vehicle: Klucel (hydroxypropylcellulose) (HPC) 123 % of control | dose: 50.0 mg/kg/injection, schedule: Q01DX009 (ip), vehicle: Klucel (hydroxypropylcellulose) (HPC) 96 % of control | [1] 108 % of control | dose: 100.0 mg/kg/injection, schedule: Q01DX001 (ip), vehicle: Klucel (hydroxypropylcellulose) (HPC) 101 % of control | [2] 101 % of control | [3] 102 % of control | dose: 200.0 mg/kg/injection, schedule: Q01DX001 (ip), vehicle: Klucel (hydroxypropylcellulose) (HPC) 101 % of control | [4] 123 % of control | [5] 91 % of control

CCOC(=O)NC(NC(=O)OCC)C(Cl)CC (configuration not stated)
inactive: [6] 107 % of control | dose: 200.0 mg/kg/injection, schedule: Q01DX001 (ip), vehicle: saline 97 % of control | dose: 400.0 mg/kg/injection, schedule: Q01DX001 (ip), vehicle: saline 101 % of control

CCN(CC)C(C)C(O)c1ccc2cc(Br)c3ccccc3c2c1 (configuration not stated)
inactive: dose: 55.0 mg/kg/injection, schedule: Q01DX Z (ip), vehicle: methylcellulose (MC) 95 % of control | dose: 83.0 mg/kg/injection, schedule: Q01DX Z (ip), vehicle: methylcellulose (MC) 97 % of control | dose: 125.0 mg/kg/injection, schedule: Q01DX Z (ip), vehicle: methylcellulose (MC) 92 % of control

CCCC(NC(=O)OCC)NC(=O)OCC
inactive: dose: 50.0 mg/kg/injection, schedule: Q01DX001 (ip), vehicle: carboxymethylcellulose (CMC) 95 % of control | [7] 92 % of control | [8] 90 % of control | [9] 92 % of control

SC1(S)CC(c2ccc(Cl)cc2)NC(c2ccc(Cl)cc2)C1 (configuration not stated)
inactive: [10] 100 % of control | [11] 93 % of control and 102 % of control | [12] 98 % of control | [13] 93 % of control and 103 % of control | [14] 89 % of control

CNc1nn[nH]n1
inactive: [12] 100 % of control | [14] 93 % of control | [15] 89 % of control

CCCCSCC(N)CO (configuration not stated)
inactive: [12] 101 % of control | [14] 101 % of control

COc1ccc(NC(=O)CCCc2ccc(N(CCCl)CCCl)cc2)cc1
inactive: dose: 4.0 mg/kg/injection, schedule: Q12HX018 (ip), vehicle: other 106 % of control | dose: 6.0 mg/kg/injection, schedule: Q12HX018 (ip), vehicle: other 121 % of control | dose: 8.0 mg/kg/injection, schedule: Q12HX018 (ip), vehicle: other 110 % of control

COc1ccc(S(=O)(=O)c2ccc(F)cc2)cc1
inactive: [1] 95 % of control | dose: 100.0 mg/kg/injection, schedule: Q01DX001 (ip), vehicle: other 98 % of control | [3] 103 % of control | dose: 200.0 mg/kg/injection, schedule: Q01DX001 (ip), vehicle: other 110 % of control | [5] 104 % of control | dose: 400.0 mg/kg/injection, schedule: Q01DX001 (ip), vehicle: other 95 % of control

CSc1cc(C)c(OC(=O)Nc2cc(C)ccc2C)c(C)c1
inactive: dose: 25.0 mg/kg/injection, schedule: Q01DX009 (ip), vehicle: saline 98 % of control | [10] 93 % of control | [11] 91 % of control | [12] 107 % of control | [13] 91 % of control | [14] 98 % of control | dose: 400.0 mg/kg/injection, schedule: Q01DX009 (ip), vehicle: saline 106 % of control | [15] 95 % of control

Cc1ccc(S(=O)(=O)OC2CC3c4ccccc4C2c2cccc[n+]23)cc1 (configuration not stated)
inactive: dose: 12.5 mg/kg/injection, schedule: Q01DX001 (ip), vehicle: saline 103 % of control | dose: 25.0 mg/kg/injection, schedule: Q01DX001 (ip), vehicle: saline 115 % of control | dose: 25.0 mg/kg/injection, schedule: Q04DX003 (ip), vehicle: saline 99 % of control | dose: 50.0 mg/kg/injection, schedule: Q01DX001 (ip), vehicle: saline 110 % of control | dose: 50.0 mg/kg/injection, schedule: Q04DX003 (ip), vehicle: saline 94 % of control | [6] 105 % of control

COc1cc(/C=N/N=C(N)N)ccc1O
inactive: dose: 15.0 mg/kg/injection, schedule: Q01DX Z (ip), vehicle: saline 95 % of control | dose: 30.0 mg/kg/injection, schedule: Q01DX Z (ip), vehicle: saline 88 % of control | dose: 60.0 mg/kg/injection, schedule: Q01DX Z (ip), vehicle: saline 101 % of control | dose: 120.0 mg/kg/injection, schedule: Q01DX Z (ip), vehicle: saline 97 % of control | dose: 240.0 mg/kg/injection, schedule: Q01DX Z (ip), vehicle: saline 89 % of control

CC(=O)N1C(=O)NC(=O)C1(C)c1cccs1 (configuration not stated)
inactive: [16] 104 % of control | [17] 98 % of control | [18] 105 % of control

O=C1c2ccccc2C(=O)N1CNc1ccc(Oc2ccc(Cl)cc2)cc1
inactive: [19] 93 % of control | [20] 93 % of control

Clc1ccc2ccc(Cl)cc2c1
inactive: [7] 103 % of control | [8] 95 % of control | [9] 94 % of control

CC1=NN(c2cccc(Cl)c2)C(=O)C1
inactive: dose: 50.0 mg/kg/injection, schedule: Q04DX003 (ip), vehicle: saline with Tween-80 105 % of control | [19] 93 % of control | [16] 94 % of control | [20] 106 % of control | [17] 96 % of control and 92 % of control | [18] 94 % of control

OCCSc1ccc2ccccc2c1
inactive: dose: 100.0 mg/kg/injection, schedule: Q04DX002 (ip), vehicle: saline with Tween-80 94 % of control | dose: 200.0 mg/kg/injection, schedule: Q04DX002 (ip), vehicle: saline with Tween-80 90 % of control | dose: 400.0 mg/kg/injection, schedule: Q04DX002 (ip), vehicle: saline with Tween-80 103 % of control

O=C1c2ccccc2C(=O)N1CNc1ccc(Cl)cn1
inactive: [19] 89 % of control | [20] 87 % of control | dose: 400.0 mg/kg/injection, schedule: Q01DX009 (ip), vehicle: saline with Tween-80 101 % of control

CC(Br)C(=O)NC(CC(N)=O)C(=O)O (configuration not stated)
inactive: [19] 93 % of control | [20] 91 % of control

Nc1cc2ccccc2c(O)c1O
inactive: dose: 100.0 mg/kg/injection, schedule: Q04DX003 (ip), vehicle: saline sonified 93 % of control | dose: 200.0 mg/kg/injection, schedule: Q04DX003 (ip), vehicle: saline sonified 96 % of control | dose: 400.0 mg/kg/injection, schedule: Q04DX003 (ip), vehicle: saline sonified 90 % of control

O=C1CCC(=O)N1CCCO
inactive: [12] 107 % of control | [14] 100 % of control | [15] 104 % of control

COc1ccc(/C=C(\C#N)c2ccc(OC)cc2)cc1
inactive: [2] 96 % of control | [3] 98 % of control | [4] 101 % of control | [5] 91 % of control | dose: 400.0 mg/kg/injection, schedule: Q01DX009 (ip), vehicle: Klucel (hydroxypropylcellulose) (HPC) 96 % of control | dose: 400.0 mg/kg/injection, schedule: Q04DX003 (ip), vehicle: Klucel (hydroxypropylcellulose) (HPC) 93 % of control

CCCCCCCCCc1cc(=O)n(-c2ccc(C(=O)OCC)cc2)n1C
inactive: dose: 12.5 mg/kg/injection, schedule: Q04DX003 (ip), vehicle: Klucel (hydroxypropylcellulose) (HPC) 105 % of control | dose: 25.0 mg/kg/injection, schedule: Q04DX003 (ip), vehicle: Klucel (hydroxypropylcellulose) (HPC) 102 % of control | [1] 97 % of control

CNC1C(c2ccc(C)cc2)=NN(c2ccccc2)C1c1ccccc1 (configuration not stated)
inactive: dose: 100.0 mg/kg/injection, schedule: Q01DX001 (ip), vehicle: saline sonified 95 % of control | dose: 200.0 mg/kg/injection, schedule: Q01DX001 (ip), vehicle: saline sonified 95 % of control | dose: 400.0 mg/kg/injection, schedule: Q01DX001 (ip), vehicle: saline sonified 89 % of control
